In patent EP0958820A1, “Use of an imidazol derivative for the manufacture of a medicament for treating auto-immunodiseases” (Sanofi-Synthélabo, priority 1998, dated 1999):
Where a name gives a salt, the structure may show the parent alone.

Tests used:
Format in all cases: cell-based
[1] = tested on: IL-4 production from mouse BMMC; assay: Antigen-induced IL-4 production from mouse BMMC (ELISA)
Experimental: (§1) • 1. Test drugs Mizolastine and terfenadine used were synthesised according to well known method in the art. Ketotifen fumarate (hereinafter 'ketotifen') was obtained from Toa Boshoku and dexamethasone from Sigma. • 2. Animals […] female mice and Balb/c female mice were used. • 3. Preparation of bone marrow-derived mast cells (hereinafter 'BMMC') Mouse BMMC were prepared in accordance with the method of Saito et al. J. Immunol. 138: 3927-3934, 1987. That is to say, femoral bone marrow cells from female CBA/J mice were suspended to concentrations of 2-5 x 10^5/ml in RPMI 1640 medium to which 50% of WEHI-3 culture supernatant had been added (containing 10% FBS, 5 x 10^-5M 2-mercaptoethanol, 50IU/ml penicillin, […] streptomycin). • 4. Production of IL-4 and TNF-α from mouse BMMC A 1/250 volume of anti-mouse DNP-IgE monoclonal antibody (Seikagaku Kogyo, […]) was added to mouse BMMC (2 x 10^6 cells/ml) and they were further sensitised by being incubated overnight. The sensitised BMMC were washed three times with RPMI 1640 medium, then suspended in RPMI 1640 medium to which 50% of WEHI-3 culture supernatant had been added to give 1.25 x 10^6 cells/ml (IL-4) or 3.75 x 10^6 cells/ml (TNF-α ). Having added 40 µl of a test drug solution prepared as a ten-fold dilution to 320 µl/well of the cell suspension and treated the cells for 30 minutes to one hour at 37°C in 5% CO2, antigen stimulation was applied adding 40 µl of a solution of dinitrophenyl human serum albumin (Sigma; hereinafter 'DNP-HSA'; 300ng/ml) (reaction solution 400 µl/well/48 well plate, final cell concentration 1∼3 x 10^6 cells/ml, final antigen concentration 30ng/ml). The level of the cytokine in the supernatant fluid from the culture was assayed by ELISA 18 hours (IL-4) or 4 hours (TNF-α ) following stimulation with the antigen. • 5. […] The level of TNF-α in the culture supernatant fluid was determined by ELISA 18 hours after stimulating with okadaic acid. • 6. […]

[2] = tested on: TNF-α production from mouse BMMC; assay: Antigen-induced TNF-α production from mouse BMMC (ELISA); conditions: 4 hours after antigen
Experimental: as §1

[3] = tested on: TNF-α production from mouse macrophages; assay: Okadaic acid-induced TNF-α production from mouse peritoneal macrophages (ELISA); conditions: Macrophage, okadaic acid 0.2 µM, 18 hours
Experimental: as §1, with “).” for “). Having added 40 µl of a test drug solution prepared as a ten-fold dilution to 320 µl/well of the cell suspension and treated the cells for 30 minutes to one hour at 37°C in 5% CO2, antigen stimulation was applied adding 40 µl of a solution of dinitrophenyl human serum albumin (Sigma; hereinafter 'DNP-HSA'; 300ng/ml) (reaction solution 400 µl/well/48 well plate, final cell concentration 1∼3 x 10^6 cells/ml, final antigen concentration 30ng/ml). The level of the cytokine in the supernatant fluid from the culture was assayed by ELISA 18 hours (IL-4) or 4 hours (TNF-α ) following stimulation with the antigen. • 5.”

With `CN1CCC(=C2c3ccccc3CC(=O)c3sccc32)CC1` [Ketotifen, Ketotifen fumarate] the inhibition at 10 µM ([1]; Mus musculus, at 10 µM, DNP-HSA stimulated, anti-DNP-IgE sensitised BMMC, 18 hours) was 65.6% and the “activity against TNF-α production” value ([2]; 0.1∼10 µM) was “no activity”.
With `CC(C)(C)c1ccc(C(O)CCCN2CCC(C(O)(c3ccccc3)c3ccccc3)CC2)cc1` (stereo not shown) [terfenadine] the “activity on IL-4 production” value ([1]; concentrations of 0.01∼1 µM) was “no activity”, the “activity against TNF-α production” value ([2]; 0.01∼1 µM) was “no activity” and the inhibition at 1 µM [3] was 24.6%.
`C[C@@H]1C[C@H]2[C@@H]3CCC4=CC(=O)C=C[C@]4(C)[C@@]3(F)[C@@H](O)C[C@]2(C)[C@@]1(O)C(=O)CO` [Dexamethasone, dexamethasone] showed an inhibition at 1 µM ([1]; Mus musculus, at 1 µM, DNP-HSA stimulated, anti-DNP-IgE sensitised BMMC, 18 hours) of 61.6% and an inhibition at 1 µM ([2]; Mus musculus, at 1 µM) of 68.7%.
